Experimental data published in ChEMBL document CHEMBL1165874, “Carbonic anhydrase inhibitors: synthesis and inhibition of the human cytosolic isozymes I and II and transmembrane isozymes IX, XII (cancer-associated) and XIV with 4-substituted 3-pyridinesulfonamides” (Eur J Med Chem, 2010).

What was measured:
Carbonic anhydrase 9 = Carbonic anhydrase 9 (Homo sapiens, UniProt Q16790)
Carbonic anhydrase 14 = Carbonic anhydrase 14 (Homo sapiens, UniProt Q9ULX7)
Sequence of Carbonic anhydrase 14 (Q9ULX7 whole entry): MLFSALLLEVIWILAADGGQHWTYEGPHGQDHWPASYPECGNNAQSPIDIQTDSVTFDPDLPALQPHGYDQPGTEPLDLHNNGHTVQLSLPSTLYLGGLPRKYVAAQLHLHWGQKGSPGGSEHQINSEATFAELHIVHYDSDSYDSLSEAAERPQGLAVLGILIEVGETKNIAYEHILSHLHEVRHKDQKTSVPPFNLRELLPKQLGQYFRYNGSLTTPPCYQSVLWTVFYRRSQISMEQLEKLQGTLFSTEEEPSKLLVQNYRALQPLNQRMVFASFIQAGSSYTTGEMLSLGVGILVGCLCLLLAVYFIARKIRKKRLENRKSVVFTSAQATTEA

SMILES | Ki (Carbonic anhydrase 9) [nM] | Ki (Carbonic anhydrase 14) [nM]
CC1CC=NN1c1ccncc1S(N)(=O)=O (configuration not stated) | 7.8 | 
C#CCSc1ccncc1S(N)(=O)=O | 6.3 | 
NS(=O)(=O)c1cnccc1Sc1nnns1 | 7.7 | 
NS(=O)(=O)c1ccc(S(=O)(=O)Nc2cccc3c(Cl)c[nH]c23)cc1 |  | 104

The remaining lines, values ahead:

Ki (Carbonic anhydrase 9) [nM] | Ki (Carbonic anhydrase 14) [nM] | SMILES
7.9 |  | NS(=O)(=O)c1cnccc1Oc1ccc(F)cc1
9.6 |  | NS(=O)(=O)c1cnccc1Sc1nc2ccc([N+](=O)[O-])cc2s1
7.2 |  | N#Cc1ccc(Oc2ccncc2S(N)(=O)=O)cc1
